Results as given in patent US7129208B2, “Synthetic ion channels” (Washington University, priority 2002, dated 2006).
Values joined by “and” are separate entries in the source; they are usually repeats but may differ in a detail not shown here. Equal entries are not always repeated. The star is where a group is joined. (C18H37)2NCOCH2OCH2CO = CCCCCCCCCCCCCCCCCCN(CCCCCCCCCCCCCCCCCC)C(=O)COCC(=O)*; OBn = c1ccc(CO*)cc1

Experiments:
[1] = Chloride release from liposomes (chloride-specific electrode); format: biochemical; conditions: for chloride release / efflux from liposomes: unilamellar liposomes 182±12 nm
Method: Liposomes were prepared by reverse-phase evaporation^26 as previously reported.^27 Cl^− release was determined with a resin, chloride-specific electrode. Ion transport, mediated by (C18H37)2NCOCH2OCH2CO-GGGPGGG-OCH2Ph (SEQ ID NO.: 2), was studied in unilamellar liposomes of 182±12 nm average dimension. […] Neither the anchor-GGGLGGG (SEQ ID NO.: 3) compound nor the anchor-GGG compound retains the kink believed to be present in (C18H37)2NCOCH2OCH2CO-GGGPGGG-OCH2Ph (SEQ ID NO.: 2) owing to the presence of the proline residue.
Substituting an impermeant external ion (SO4^=) for a permeant one (NO3^−) will generate a membrane potential that inhibits Cl^− release. Thus, replacing nitrate by sulfate in the aqueous medium produced a 5-fold reduction in chloride efflux (data not shown).

[2] = Voltage clamp in planar lipid bilayers; format: biochemical; conditions: for maximum conductance (chloride diffusion pathway): linear current-voltage relationship, 63 μM in b201
Method: The chloride selectivity of (C18H37)2NCOCH2OCH2CO-GGGPGGG-OCH2Ph (SEQ ID NO.: 2) was assessed by voltage clamp methods in planar phospholipid bilayers. Addition of (C18H37)2NCOCH2OCH2CO-GGGPGGG-OCH2Ph (SEQ ID NO.: 2) to planar bilayer lipids produced large currents within seconds in a 450:150 mM KCl ion gradient. The sign and the magnitude of this current indicated Cl^− transport by a nanoSiemen-sized channel. A linear current-voltage relationship gave a maximum conductance of 1.3±0.1 nS. The reversal potential, Erev, was 28±0.45 mV, corresponding to the calculated chloride Nernst potential, ECl, of 28.2 mV. This confirms the >10:1 Cl^−/K^+ selectivity observed in liposomes. The ion selectivity and conductivity indicate that (C18H37)2NCOCH2OCH2CO-GGGPGGG-OCH2Ph (SEQ ID NO.: 2) forms a large, stable, anion selective aqueous pore in bilayer membranes.
Planar lipid bilayers were formed by standard methods. (C18H37)2NCOCH2OCH2CO-GGGPGGG-OCH2Ph (SEQ ID NO.: 2) was applied to the cis chamber at 60 μM (micromolar) with a 450 mM/150 mM KCl gradient present across the membrane. Seconds later Cl^− currents appeared and voltage was varied from +20 to −2 mV. Fractional open time was computed using the computer programs Fetchan and pStat (Axon Instruments, CA).
The chloride selectivity of (C18H37)2NCOCH2OCH2CO-GGG-P-GGG-OCH2Ph (SEQ ID NO.: 2) was assessed by voltage clamp methods in planar lipid bilayers prepared as described in P. Schlesinger, et al., Proc. Natl. Acad. Sci. 94, 11357 (1997). The addition of 63 μM (C18H37)2NCOCH2OCH2CO-GGG-P-GGG-OCH2Ph (SEQ ID NO.: 2) produced large currents within seconds in a 450:150 mM KCl ion gradient (FIG. 8a). […] The reversal potential, Erev, was 28±0.45 mV, corresponding to the calculated chloride Nernst potential, ECl, of 28.2 mV (FIG. 8c). This confirms the >10:1 Cl^−/K^+ selectivity observed in liposomes. The ion selectivity and conductivity indicate that (C18H37)2NCOCH2OCH2CO-GGG-P-GGG-OCH2Ph (SEQ ID NO.: 2) forms a large, stable, anion selective aqueous pore in bilayer membranes.

[3] = Carboxyfluorescein fluorescence dequenching: pore activation and size, dextran block; format: biochemical
Method: Fluorescence dequenching was used to study pore activation and size as previously described in Saito et al. CF dequenching reflects the kinetics of pore activation and dequenching is accurately fit by this equation. Ft=F0+A1(1−e^−(t/τ))+mt
This exponential model requires that the concentration dependence of quenching will reflect the molecularity of pore activation (FIG. 9a, 9b). […] We infer therefore that at ˜100 μM, the active pore involves two molecules of (C18H37)2NCOCH2OCH2CO-GGG-P-GGG-OCH2Ph (SEQ ID NO.: 2). […] Size-specific dextran block (using ˜6–26 Å diameter molecules) confirmed an apparent pore diameter of 6.6 A (FIG. 9d, 9e) (M. Saito, S. J. Korsmeyer, P. H. Schlesinger, Nature Cell Biology, 553 (2000); S. Rex, G. Schwarz, Biochemistry37, 2336 (1998)).

[4] = Pore size from molecular models and bilayer conductance data
[5] = tested on: RAW 264.7 cells; assay: Intracellular calcium, Fura-2 fluorescence ratio method; conditions: 46 μM or 92 μM applied at time zero
Method: We determined cell volume from 0.5 micron image stacks collected at 30 second intervals and calculated the time-dependent volume changes that are shown in FIG. 7B. […] RAW 264.7 cells (American Type Culture Collection, Manassas Va.) were plated into microscope chambers in Dulbeccos Minimal Essential Media with antibiotics and 10% fetal calf serum and allowed to recover over night at 5% CO2. Prior to experiment they were transferred to Hanks buffered saline (10 mM HEPES, pH 7.0) and placed into the thermostated microscope stage (37° C.) and permitted to equilibrate for 10 min. Cell volume was monitored and corrected for changes in cell geometry by optical sections at 0.5 micron steps from the glass surface to the top of the cell (typically 5–7 sections). Images were collected using a Zeiss 100 M Axovert microscope, a 12-bit Sensi-Cam, and analyzed using Slidebook 3.0 (Intelligent Imaging Innovations, Inc. Cambridge, Mass.). Cell volume was calculated by summing the intracellular surface for each image in the stack of sections. […] In FIG. 7B the cellular volume changes were followed by comparing sequential series of z-stacks from optical sections and normalized to total cell volume at the beginning of the experiment (t=0). […] Intracellular calcium was followed using Fura-2 fluorescence ratio method. […]

[6] = tested on: RAW 264.7 cells; assay: Cell volume regulation in a monocytic cell line (optical sections)
Method: We determined cell volume from 0.5 micron image stacks collected at 30 second intervals and calculated the time-dependent volume changes that are shown in FIG. 7B. […] RAW 264.7 cells (American Type Culture Collection, Manassas Va.) were plated into microscope chambers in Dulbeccos Minimal Essential Media with antibiotics and 10% fetal calf serum and allowed to recover over night at 5% CO2. Prior to experiment they were transferred to Hanks buffered saline (10 mM HEPES, pH 7.0) and placed into the thermostated microscope stage (37° C.) and permitted to equilibrate for 10 min. Cell volume was monitored and corrected for changes in cell geometry by optical sections at 0.5 micron steps from the glass surface to the top of the cell (typically 5–7 sections). Images were collected using a Zeiss 100 M Axovert microscope, a 12-bit Sensi-Cam, and analyzed using Slidebook 3.0 (Intelligent Imaging Innovations, Inc. Cambridge, Mass.). Cell volume was calculated by summing the intracellular surface for each image in the stack of sections. […] In FIG. 7B the cellular volume changes were followed by comparing sequential series of z-stacks from optical sections and normalized to total cell volume at the beginning of the experiment (t=0). […] Intracellular calcium was followed using Fura-2 fluorescence ratio method. […] Depolarization dependent increase in cytosolic calcium was initiated by the switch to 100 mM KCl at 200 seconds (open triangle).

## CC(C)[C@@H]1NC(=O)[C@H](C)OC(=O)[C@@H](C(C)C)NC(=O)[C@@H](C(C)C)OC(=O)[C@H](C(C)C)NC(=O)[C@H](C)OC(=O)[C@@H](C(C)C)NC(=O)[C@@H](C(C)C)OC(=O)[C@H](C(C)C)NC(=O)[C@H](C)OC(=O)[C@@H](C(C)C)NC(=O)[C@@H](C(C)C)OC1=O [valinomycin, reference compound]
[1]; added to liposomes with the channel compound in sulfate medium
  effect on membrane potential inhibition of net chloride movement: permitted the remaining chloride to exit the liposomes

## (C18H37)2NCOCH2OCH2CO-Gly-Gly-Gly-OCH2Ph [(C18H37)2NCOCH2OCH2CO-GGG-OCH2Ph]
[1]; compared with the GGGPGGG compound
  reduction of Cl- release: 6 fold

## (C18H37)2NCOCH2OCH2CO-Gly-Gly-Gly-Pro-Gly-Gly-Gly-OCH2Ph ({(C18H37)2NCOCH2OCH2CO}-GGGPGGG-OBn; SMILES CCCCCCCCCCCCCCCCCCN(CCCCCCCCCCCCCCCCCC)C(=O)COCC(=O)NCC(=O)NCC(=O)NCC(=O)N1CCC[C@H]1C(=O)NCC(=O)NCC(=O)NCC(=O)OCc1ccccc1) [(C18H37)2NCOCH2OCH2CO-GGGPGGG-OCH2Ph]
[1]; external SO4 instead of NO3, data not shown
  reduction in chloride efflux on replacing nitrate by sulfate in the aqueous medium: 5 fold
[1]
  chloride release / efflux from liposomes: rapid, concentration dependent, and went to completion
[2]; 60 μM in cis chamber, 450 mM/150 mM KCl gradient, voltage +20 to -2 mV
  voltage dependent gating: voltage dependent gating
[2]; 450:150 mM KCl ion gradient, calculated chloride Nernst potential 28.2 mV
  reversal potential, Erev: 28±0.45 mV
[2]; 450:150 mM KCl ion gradient
  maximum conductance (chloride diffusion pathway): 1.3±0.1 nS
[2]; 450:150 mM KCl ion gradient, listed as (C18H37)2NCOCH2OCH2CO-GGG-P-GGG-OCH2Ph
  maximum conductance (chloride diffusion pathway): 1.3±0.01 nS
[3]; at ~100 μM, inferred
  molecules in the active pore: two
[3]; size-specific dextran block, ~6–26 Å diameter molecules
  apparent pore diameter: 6.6 A
[4]; molecular models, conductance data and dextran block taken together
  pore size: 6–8 Å
[4]; suggested by molecular models and bilayer conductance data
  pore diameter: 6.5–8 Å
[5]
  change in cytosolic calcium: small increases
[6]; 46 μM added at t=0, normalized to total cell volume at t=0
  cell volume decrease: 20% and 20±0.5%
[6]; 100 μM
  extent of cell volume decrease, of the initial cell volume: 20–25%
[6]; mammalian cells
  effect on cellular volume: modulates cellular volume

## (H37C18)2NCOCH2OCH2CO-Gly-Gly-Gly-Leu-Gly-Gly-Gly-OCH2Ph ({(H37C18)2NCOCH2OCH2CO}-GGGLGGG-OBn) [anchor-GGGLGGG]
[1]
  chloride release / efflux from liposomes: dramatically reduced
